Assay results as given in patent US20170196834A1, “PREPARATION AND APPLICATION OF FLAVONOL AS BRAIN-TARGETING SYNERGIST” (GUANGDONG PHARMACEUTICAL UNIVERSITY, priority 2014, published 2017).
One block for each compound: values may come before it.

What was measured:
[1] = cited from earlier work
[2] = system: MCAO forebrain ischemia; test: MCAO forebrain ischemia rats, improvement rate of cerebral infarction area (Example 2); format: in vivo; conditions: gavage, 7 days after administration
Method: In addition, […] of MCAO forebrain ischemia were prepared, and they were administered with solvent saline, 100 mg/kg LXN11 and ginsenoside Rg1 by gavage at 20 ml/kg, 10 rats per group; Animals were sacrificed 7 days after administration, to observe the improvement rate of cerebral infarction area.

[3] = Levodopa in blood and brain tissues 0.5 h after intragastric administration, UPLC-MS (Example 7); format: in vivo; conditions: rat, oral, SD rats, intragastric 100 mg/kg levodopa
Method: Five SD rats were administered the suspension at the dose of 100 mg/kg levodopa and the volume of 20 ml/kg by intragastric administration;
Control group: The levodopa was made into suspension. Five SD rats were administered the suspension at the dose of 100 mg/kg and the volume of 20 ml/kg by intragastric administration;
The rats were drew blood 0.5 h after administration, and then sacrificed under anaesthesia. Brain tissues were taken to prepare brain homogenates. The content of active ingredient in the blood and brain tissues was detected by UPLC-MS.

[4] = system: 6-hydroxydopamine PD models; test: 6-hydroxydopamine PD model rats, behavioural indexes; format: in vivo; conditions: 6-hydroxydopamine PD rats, 100 mg/kg levodopa by gavage, 15 days
Method: Animals were administered for 15 days, to observe the changes of five indexes, including slow-moving test, grasping experiment, tail stiffness, change of tonic symptoms and tremor test.

[5] = system: Parkinson's disease; test: Clinical treatment of Parkinson's disease (LXN9, LXN10, levodopa); format: in vivo, human
Text: (1) Clinical Data and Methods • Same as above.
Profile of patients: All selected patients were from department of neurology, which diagnosed with Parkinson's disease according to the Parkinson's disease diagnostic criteria in clinical examination during 2010-2014. a total of 120 cases, including 66 males, 54 females; aged 50-78 years, and 62.8 years on average, with the shortest duration of 1 year, and longest duration of 13 years, 3.6 years on average.
Levodopa tablet group: (specification of 250 mg/tablet) 1 tablet/time, 3 times/d.
LXN 10 capsule group: 250 mg/capsule, 1 capsule per time, 3 times a day.
Fifteen days as a course in all groups, a total of 9 months for medication; and during the period, other drugs regulating cerebral vasodilation, brain cell metabolism and neurological functions were discontinued. […]

[6] = Vinpocetine, edaravone, oxiracetam in blood and brain tissue 0.5 h after intragastric administration, UPLC-MS (Example 6); format: in vivo; conditions: rat, oral, SD rats, intragastric 100 mg/kg
Method: Treatment Group: LXN6, LXN7, LXN8 were made into suspensions respectively. Five SD rats were administered the suspensions at the dose of 100 mg/kg and the volume of 20 ml/kg by intragastric administration;
Control group: vinpocetine, edaravone, oxiracetam were made into suspension. Five SD rats were administered the suspension at the dose of 100 mg/kg and the volume of 20 ml/kg by intragastric administration;
The rats were drewd blood 0.5 h after administration, then sacrificed under anaesthesia. Brain tissues were taken to prepare brain homogenates. The content of active ingredient in the blood and brain tissues was detected by UPLC-MS.

[7] = system: MCAO forebrain ischemia; test: MCAO forebrain ischemia rats, infarction area, nerve regeneration, learning and memory (Example 6); format: in vivo; conditions: 100 mg vinpocetine/edaravone/oxiracetam per kg, intragastric, 7 days after administration
Method: In addition, 70 rats of MCAO forebrain ischemia were prepared, and they were administrated with solvent saline, or administrated with LXN6, LXN7 or LXN8, containing vinpocetine, edaravone or oxiracetam, respectively, at a dosage of 100 mg vinpocetine/edaravone/oxiracetam per kg body weight, or administrated with vinpocetine, edaravone or oxiracetam at a dosage of 100 mg/kg.
Intragastric administration at an amount of 20 ml/kg was conducted, for 10 rats per group; Animals were sacrificed 7 days after administration, to observe the improvement rate of cerebral infarction area and the improvement rate of nerve regeneration, learning and memory ability.

SMILES: COc1ccc([C@@H]2CC(=O)c3c(O)cc(O[C@@H]4O[C@H](CO[C@@H]5O[C@@H](C)[C@H](O)[C@@H](O)[C@H]5O)[C@@H](O)[C@H](O)[C@H]4O)cc3O2)cc1O [Hesperidin]
solubility in water [1]: insoluble in water

SMILES: CC(C)=CCC[C@](C)(O[C@@H]1O[C@H](CO)[C@@H](O)[C@H](O)[C@H]1O)[C@H]1CC[C@]2(C)[C@@H]1[C@H](O)C[C@@H]1[C@@]3(C)CC[C@H](O)C(C)(C)[C@@H]3[C@@H](O[C@@H]3O[C@H](CO)[C@@H](O)[C@H](O)[C@H]3O)C[C@]12C [Rg1, ginsenoside Rg1]
Improvement rate of cerebral infarction area [2]: 26.1 ± 7.1%

SMILES: C[C@@H]1O[C@@H](OC[C@H]2O[C@@H](Oc3c(-c4ccc(O)c(O)c4)oc4cc(O)cc(O)c4c3=O)[C@H](O)[C@@H](O)[C@@H]2O)[C@H](O)[C@H](O)[C@H]1O [Rutin]
solubility in boiling water ([1]; boiling water): soluble in boiling water
solubility in water [1]: not soluble in water

concentration at 0.5 h ([3]; blood, read-out: levodopa Content in the blood): 114000 ng/mL
concentration at 0.5 h ([3]; brain, read-out: levodopa Content in the brain tissues): 284 ng/mL
SMILES: N[C@@H](Cc1ccc(O)c(O)c1)C(=O)O [Levodopa, levodopa]
Duration of slow-moving test [4]: 15.5 min
EMG group discharge frequency [4]: 3.1 times/sec
Grip Test Duration [4]: 40.1 min
Muscle tremor frequency [4]: 10.1 times, minutes
tail stiffness time [4]: 10.2 min
Daily Living Activity (UPDRS-II) Score, 1 month after treatment ([5]; PD patients, n=40): 14.12 ± 5.31
Daily Living Activity (UPDRS-II) Score, 3 months after treatment ([5]; PD patients, n=40): 12.49 ± 5.10
Daily Living Activity (UPDRS-II) Score, 6 months after treatment ([5]; PD patients, n=40): 11.12 ± 3.31
Daily Living Activity (UPDRS-II) Score, 12 months after treatment ([5]; PD patients, n=40): 10.32 ± 3.31
Daily Living Activity (UPDRS-II) Score, Before treatment ([5]; PD patients, n=40): 15.61 ± 5.71
daily life satisfaction (LSIB) scores, 1 month after treatment ([5]; PD patients, n=40): 13.11 ± 3.92
daily life satisfaction (LSIB) scores, 3 months after treatment ([5]; PD patients, n=40): 14.91 ± 3.16
daily life satisfaction (LSIB) scores, 6 months after treatment ([5]; PD patients, n=40): 16.85 ± 3.15
daily life satisfaction (LSIB) scores, 12 months after treatment ([5]; PD patients, n=40): 17.24 ± 3.16
daily life satisfaction (LSIB) scores, Before treatment ([5]; PD patients, n=40): 12.59 ± 2.02
motor complications (UPDRS-IV) scores, 1 month after treatment ([5]; PD patients, n=40): 2.93 ± 0.86
motor complications (UPDRS-IV) scores, 3 months after treatment ([5]; PD patients, n=40): 2.46 ± 0.61
motor complications (UPDRS-IV) scores, 6 months after treatment ([5]; PD patients, n=40): 2.15 ± 0.56
motor complications (UPDRS-IV) scores, 12 months after treatment ([5]; PD patients, n=40): 1.79 ± 0.56
motor complications (UPDRS-IV) scores, Before treatment ([5]; PD patients, n=40): 3.59 ± 1.02
motor function examination (UPDRS-III) scores, 1 month after treatment ([5]; PD patients, n=40): 34.16 ± 7.91
motor function examination (UPDRS-III) scores, 3 months after treatment ([5]; PD patients, n=40): 28.91 ± 6.61
motor function examination (UPDRS-III) scores, 6 months after treatment ([5]; PD patients, n=40): 24.85 ± 6.56
motor function examination (UPDRS-III) scores, 12 months after treatment ([5]; PD patients, n=40): 21.15 ± 6.56
motor function examination (UPDRS-III) scores, Before treatment ([5]; PD patients, n=40): 37.99 ± 10.23
psychiatric, behavioral, and emotional scores (UPDRS-1), 1 month after treatment ([5]; PD patients, n=40): 3.15 ± 0.81
psychiatric, behavioral, and emotional scores (UPDRS-1), 3 months after treatment ([5]; PD patients, n=40): 2.29 ± 0.73
psychiatric, behavioral, and emotional scores (UPDRS-1), 6 months after treatment ([5]; PD patients, n=40): 1.85 ± 0.53
psychiatric, behavioral, and emotional scores (UPDRS-1), 12 months after treatment ([5]; PD patients, n=40): 1.79 ± 0.59
psychiatric, behavioral, and emotional scores (UPDRS-1), Before treatment ([5]; PD patients, n=40): 3.59 ± 1.02
Curative effect for PD: Overall response rate (ORR) ([5]; clinically cured, markedly effective and effective cases): 80%
Curative effect for PD: Clinically cured % ([5]; of 40 cases): 0%
Curative effect for PD: Clinically cured n ([5]; of 40 cases): 0
Curative effect for PD: Effective % ([5]; of 40 cases): 32.2%
Curative effect for PD: Effective n ([5]; of 40 cases): 13
Curative effect for PD: Ineffective % ([5]; of 40 cases): 20.0%
Curative effect for PD: Ineffective n ([5]; of 40 cases): 8
Curative effect for PD: Markedly effective % ([5]; of 40 cases): 47.8%
Curative effect for PD: Markedly effective n ([5]; of 40 cases): 19

concentration at 0.5 h ([6]; blood, read-out: Oxiracetam content in the blood): 82300 ng/mL
concentration at 0.5 h ([6]; brain, read-out: Oxiracetam content in the brain tissue): 173 ng/mL
SMILES: NC(=O)CN1CC(O)CC1=O (stereo not drawn) [Oxiracetam, oxiracetam]
Improvement rate of learning and memory [7]: 56.9
Infarction area [7]: 24.5%
Nerve regeneration rate [7]: 85%
Space exploration distance [7]: 54.0 cm
